From patent US8138188B2, “Melanocortin type 4 receptor agonist piperidinoylpyrrolidines” (Pfizer Inc., priority 2006, dated 2012)

Assays:
human MC3 receptor = target: T1, human MC3 receptor (Homo sapiens, UniProt P41968); experiment: In vitro agonist potency (EC50) against melanocortin receptor type 3, cAMP in recombinant cell line; assay type: cell-based; conditions: cell line stably transfected with human MC3, 1 hour at 37° C.
T1 construct: stably transfected with full length cDNA encoding human MC1 or MC3 receptors; expressed in transfected cells; host or cells: Chinese hamster ovary cell line (MC3; 'respectively')
T1 sequence (P41968 whole entry): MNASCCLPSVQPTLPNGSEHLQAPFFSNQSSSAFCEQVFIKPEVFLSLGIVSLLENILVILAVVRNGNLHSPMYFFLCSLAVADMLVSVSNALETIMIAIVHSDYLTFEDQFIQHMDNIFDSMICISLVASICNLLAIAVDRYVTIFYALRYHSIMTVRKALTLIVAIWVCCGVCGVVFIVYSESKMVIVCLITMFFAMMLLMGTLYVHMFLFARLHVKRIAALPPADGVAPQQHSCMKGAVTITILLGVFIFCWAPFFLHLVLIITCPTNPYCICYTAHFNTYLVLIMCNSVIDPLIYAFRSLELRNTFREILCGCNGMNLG
Method: Measurement of In Vitro Agonist Potency (EC50) of Compounds Against Melanocortin Receptors Type 1 and 3 (MC1 and MC3).
Activation of melanocortin (MC) receptors by agonists results in activation of intracellular adenylate cyclase enzymes that synthesise the second messenger signalling molecule, adenosine 3′,5′-cyclic monophosphate (cAMP). Changes in cAMP levels following treatment of recombinant MC1 and MC3 cell lines with test compound were measured and an MC1 and MC3 potency estimate (EC50) calculated as follows: […]
Human embryonic kidney (HEK) or Chinese hamster ovary cell lines stably transfected with full length cDNA encoding human MC1 or MC3 receptors, respectively, were established using standard molecular biology methods. Test compounds were dissolved in dimethyl sulfoxide (DMSO) at 4 mM. 11 point half log unit increment dilution series of test compound, typically starting at 50 uM were prepared in a buffer comprised of phosphate buffered saline (PBS), 2.5% DMSO and 0.05% pluronic F-127 surfactant. Freshly cultured cells at 80-90% confluence were harvested and re-suspended in Dulbecco's Modified Eagle's Medium (DMEM). Cells (10,000 for MC3, 20,000 for MC1) were added to the test compound dilution series in a 384 well assay plate and incubated for 1 hour at 37° C. The relative cAMP concentration in each well was then measured using a β-galactosidase enzyme fragment complementation method purchased in kit form as the Discoverx cAMP II kit from GE Healthcare/Amersham Biosciences UK. In the case of MC1,3-Isobutyl-1-methylxanthine (IBMX) at a concentration of 750 μM was included in DMEM as the cells were re-suspended for assay. […] Sigmoidal curves were fitted to plots of log10 inhibitor concentration vs percent effect using a custom made software application called SIGHTS and EC50 estimates determined by the software as the concentration of test compound giving an effect half way between the bottom and top assymptopes of the sigmoidal dose response curve. Each experiment included an EC50 determination for alpha melanocyte stimulating hormone, which was used as a standard to track assay consistency and allow fair comparison between EC50 estimates obtained in different experiments.

[1] = In vitro metabolism rate determination, rat liver microsome (RLM) assay; assay type: in vitro ADME; conditions: rat liver microsomes, substrate 1 μM; read-out: RLM (intrinsic clearance)
Source text: In vitro Metabolism Rate Determination (Human Liver Microsome (HLM); Rat Liver Microsome (RLM) Assay)
Many drugs are metabolised by the cytochrome P450 mono-oxygenase system. This enzyme is found in high concentrations in the liver and is bound to the endoplasmic reticulum of the hepatocyte. The enzyme system can be obtained in semi-purified state by the preparation of the hepatic microsomal fractions. Determining a compound's in vitro half-life in such a system provides a useful indicator of metabolic stability.
Methodology For In Vitro Rate Determination Using Hepatic & Supermix Microsomes
The method outlined below is for a total incubation volume of 1.5 ml.
1. The following mixture is prepared in a test tube:
2. Defrost microsomes at room temperature and add sufficient microsomes to give a final concentration of 0.5 nmol cytochrome P450/ml of incubation e.g. for a 1.5 ml incubation, the volume of microsomes to be added is:
[formula] 3. Add sufficient MilliQ water to give a total incubation volume of 1.425 ml. 4. Remove 237.5 μl of incubation mix and place in test tube for PNA positive control. Add 2.5 μl of PNA solution, whirlimix, and put tube into a rack in the thermostatically controlled shaking water bath 5. Remove 100 μl for no substrate control and dispense in test tube. Place test tube in a rack in the thermostatically controlled shaking water bath. 6. Add substrate to the incubation. The substrate should be at an initial concentration of 1 μM. The volume of substrate required in the remaining 1.162.5 ml incubation is calculated as follows:
[formula] • N.B. The volume of organic solvent added should not exceed 0.1% of the total incubation volume. 7. Remove 100 μl of incubation mix into test tube for no cofactor control. Whirlimix and put into a rack in the thermostatically controlled shaking water bath. 8. Pre-incubate the tube containing the incubation mix, also positive control and no cofactor tubes in the thermostatically controlled shaking water bath set at 37° C. for approx 5 min. 9. Add NADP to initiate reaction (75 μl to each 1.162.5 ml incubation mix, 12.5 μl to positive control tube and 5 μl to no substrate tube) and take first time point immediately. The PNA positive control, no cofactor control and no substrate tubes are incubated for the total incubation time. 10. Remove 100 μl aliquots up to 9 different sampling points from 0 to 60 min (usually 0, 3, 5, 10, 15, 20, 30, 45 & 60 min) and terminate reaction. Longer incubation times can be used, but, after 120 min the microsomes deteriorate. The reaction may be terminated by addition of organic solvent, acid or base. At the end of the incubation process the no cofactor and no substrate controls in a similar manner i.e. terminate with the same reagent. 11. PNA Positive Control Procedure: • After the final sample has been taken, remove the positive control and add 1 ml 20% TCA to this tube. Also prepare a tube containing 250 μl of a PNP standard at 50 μM, and add 1 ml 20% TCA. Whirlimix both tubes and leave for approx 5 min to allow the protein to precipitate. • Centrifuge both tubes for approx 5 min in an instrument set at 3500 rpm. Remove 1 ml of supernatant and place into clean test tubes, discard the remainder. • Add 1 ml 10M NaOH to the supernatant, whirlimix, and leave to stand for approx min. Blank spectrophotometer with distilled water at 400 nm then measure absorbance of the PNP standard against distilled water. The microsomal 4-nitroanisole O-demethylase activity is calculated as follows: Calculation of Results
[formula] • The activity value from the incubation MUST be equal to or greater than 85% of the mean value of the batch used for the incubation to be valid. If this criteria is not met, then the incubation must be repeated. 11. Analyse samples (including no cofactor and no substrate control) by a specific assay for the substrate to determine the disappearance kinetics. Analysis Of Data […]

MC4 receptor = MC4 receptor (Homo sapiens, UniProt P32245); experiment: MC4 functional agonist potency (EC50), assay protocol E of US2005/0176772 / WO 2005/077935; assay type: cell-based; conditions: functional potency at the MC4 receptor
Chain of MC4 receptor (P32245 whole entry): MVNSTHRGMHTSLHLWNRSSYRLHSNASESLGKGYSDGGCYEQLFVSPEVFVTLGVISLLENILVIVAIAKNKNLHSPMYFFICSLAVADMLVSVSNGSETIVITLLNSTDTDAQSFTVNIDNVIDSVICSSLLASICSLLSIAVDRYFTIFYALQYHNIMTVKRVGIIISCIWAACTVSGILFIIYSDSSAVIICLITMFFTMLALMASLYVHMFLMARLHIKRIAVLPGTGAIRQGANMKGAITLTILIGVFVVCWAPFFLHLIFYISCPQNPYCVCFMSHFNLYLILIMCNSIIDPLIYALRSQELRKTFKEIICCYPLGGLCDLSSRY
Method: The compounds of formula (I) of the present invention have utility as MCR4 agonists in the treatment of various disease states.
MC5 and MC4 EC50 activity was determined as described by assay protocols D and E, respectively, in US2005/0176772 (pages 28-30).

| EC50 (human MC3 receptor) | microsomal CLint at 1 μM [1] | EC50 (MC4 receptor) | Structure (SMILES) |
| --- | --- | --- | --- |
| 43.9 nM | < 8.5 µL/min/mg | < 0.52 nM | C[C@@H]1CN(C(=O)[C@@H]2CN(c3ccc(C#N)cn3)C[C@H]2c2ccc(Cl)cn2)C[C@H](C)[C@@]1(O)c1ccc(F)cc1 [Example 1, 6-[(3S,4S)-3-(5-Chloropyridin-2-yl)-4-{[(3R,4R,5S)-4-(4-fluorophenyl)-4-hydroxy-3,5-dimethylpiperidin-1-yl]carbonyl}pyrrolidin-1-yl]nicotinonitrile] |
| 4.26 nM | 31 µL/min/mg | 4.53 nM | C[C@@H]1CN(C(=O)[C@@H]2CN(c3ccc(C#N)nn3)C[C@H]2c2ccc(Cl)cn2)C[C@H](C)[C@@]1(O)c1ccc(F)cc1 [Example 2, 6-[(3S,4S)-3-(5-Chloropyridin-2-yl)-4-{[(3R,4R,5S)-4-(4-fluorophenyl)-4-hydroxy-3,5-dimethylpiperidin-1-yl]carbonyl}pyrrolidin-1-yl]pyridazine-3-carbonitrile] |
| 55.9 nM | 74 µL/min/mg |  | COc1ccc(N2C[C@@H](C(=O)N3C[C@@H](C)[C@](O)(c4ccc(F)cc4)[C@@H](C)C3)[C@H](c3ccc(Cl)cn3)C2)nn1 [Example 4, (3R,4R,5S)-1-{[(3S,4S)-4-(5-chloropyridin-2-yl)-1-(6-methoxypyridazin-3-yl)pyrrolidin-3-yl]carbonyl}-4-(4-fluorophenyl)-3,5-dimethylpiperidin-4-ol] |
| 203 nM | 27 µL/min/mg | 137 nM | C[C@@H]1CN(C(=O)[C@@H]2CN(c3ccc(Cl)nn3)C[C@H]2c2ccc(F)cn2)C[C@H](C)[C@@]1(O)c1ccc(Cl)cc1 [Example 5, (3R,4R,5S)-4-(4-chlorophenyl)-1-{[(3S,4S)-1-(6-chloropyridazin-3-yl)-4-(5-fluoropyridin-2-yl)pyrrolidin-3-yl]carbonyl}-3,5-dimethylpiperidin-4-ol] |
| 1590 nM |  | 49.3 nM | COc1ccc([C@@H]2CN(c3ccc(C#N)nn3)C[C@H]2C(=O)N2C[C@@H](C)[C@](O)(c3ccc(F)cc3)[C@@H](C)C2)nc1 [Example 43] |

The next lines start with the compound.

| Structure (SMILES) | EC50 (human MC3 receptor) | microsomal CLint at 1 μM [1] | EC50 (MC4 receptor) |
| --- | --- | --- | --- |
| C[C@@H]1CN(C(=O)[C@@H]2CN(c3ccc(=O)[nH]n3)C[C@H]2c2ccc(F)cn2)C[C@H](C)[C@@]1(O)c1ccc(Cl)cc1 [Example 6, 6-[(3S,4S)-3-{[(3R,4R,5S)-4-(4-chlorophenyl)-4-hydroxy-3,5-dimethylpiperidin-1-yl]carbonyl}-4-(5-fluoropyridin-2-yl)pyrrolidin-1-yl]pyridazin-3(2H)-one] | 1460 nM | < 8.5 µL/min/mg | 18.9 nM |
| C[C@@H]1CN(C(=O)[C@@H]2CN(c3ccc(=O)n(C)n3)C[C@H]2c2ccc(F)cn2)C[C@H](C)[C@@]1(O)c1ccc(Cl)cc1 [Example 7, 6-[(3S,4S)-3-{[(3R,4R,5S)-4-(4-chlorophenyl)-4-hydroxy-3,5-dimethylpiperidin-1-yl]carbonyl}-4-(5-fluoropyridin-2-yl)pyrrolidin-1-yl]-2-methylpyridazin-3(2H)-one] | 1600 nM | 11 µL/min/mg | 40 nM |
| C[C@@H]1CN(C(=O)[C@@H]2CN(c3cncc(F)c3)C[C@H]2c2ccc(Cl)cn2)C[C@H](C)[C@@]1(O)c1ccccn1 [Example 8, (3R,4R,5S)-1-{[(3S,4S)-4-(5-chloropyridin-2-yl)-1-(5-fluoropyridin-3-yl)pyrrolidin-3-yl]carbonyl}-3,5-dimethyl-4-pyridin-2-ylpiperidin-4-ol] | 1090 nM | > 510 µL/min/mg | 27.5 nM |
| CC1CN(C(=O)C2CN(c3ccc(=O)[nH]n3)CC2c2ccc(F)cn2)CC(C)C1(O)c1ccccc1 (stereo not shown) [Example 37] | 325 nM | 23 µL/min/mg |  |
| CC1CN(C(=O)C2CN(c3ccc(=O)n(C)n3)CC2c2ccc(F)cn2)CC(C)C1(O)c1ccccc1 (stereo not shown) [Example 39] | 2100 nM | 58 µL/min/mg |  |
| COc1ccc(C2CN(c3ccc(=O)[nH]n3)CC2C(=O)N2CC(C)C(O)(c3ccc(F)cc3)C(C)C2)nc1 (stereo not shown) [Example 42] | > 20300 nM | 25 µL/min/mg |  |
